Patent publication US11673866B2, “Estrogen receptor beta ligands for the prevention and treatment of multiple sclerosis (MS) and other demyelinating, inflammatory and neurodegenerative diseases” (The Board of Trustees of the University of Illinois, priority 2018, dated 2023)

Experiments:
ERα = target: T1, ERα (Homo sapiens, UniProt P03372); test: Relative binding affinity (RBA) to estrogen receptor alpha, radiometric measurement; conditions: relative value to 100% for E2 by radiometric measurement
T1 sequence (P03372 1-595): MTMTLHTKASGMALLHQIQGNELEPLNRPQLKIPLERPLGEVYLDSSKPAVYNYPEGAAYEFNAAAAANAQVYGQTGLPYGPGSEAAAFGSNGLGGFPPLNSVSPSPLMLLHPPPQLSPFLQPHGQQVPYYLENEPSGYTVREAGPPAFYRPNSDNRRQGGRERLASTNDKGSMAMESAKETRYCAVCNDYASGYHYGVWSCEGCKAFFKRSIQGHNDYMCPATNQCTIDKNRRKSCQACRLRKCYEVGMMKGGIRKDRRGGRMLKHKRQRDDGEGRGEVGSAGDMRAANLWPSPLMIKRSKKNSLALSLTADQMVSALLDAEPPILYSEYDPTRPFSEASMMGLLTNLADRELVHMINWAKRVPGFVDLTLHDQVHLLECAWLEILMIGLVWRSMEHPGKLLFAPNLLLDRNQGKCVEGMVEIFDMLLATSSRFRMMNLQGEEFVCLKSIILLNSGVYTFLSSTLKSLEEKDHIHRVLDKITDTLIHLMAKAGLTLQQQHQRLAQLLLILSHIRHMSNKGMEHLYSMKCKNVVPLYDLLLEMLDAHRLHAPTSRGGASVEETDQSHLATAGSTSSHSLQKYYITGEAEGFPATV

ERβ = ERβ (Homo sapiens, UniProt Q92731); test: Relative binding affinity (RBA) to estrogen receptor beta, radiometric measurement; conditions: for β/α Ratio: ratio of RBA ERβ to RBA ERα; for RBA ERβ: relative value to 100% for E2 by radiometric measurement
primary OPCs/OLs = test: Primary OPC/OL differentiation and survival (O4, MOG, DAPI staining); type: cell-based, mouse; conditions: for number of MOG+ OLs: vs vehicle-treated cells, FIG. 12B
From the text: FIG. 12A is representative images of primary OPCs/OLs from wells containing differentiating media in the presence of different analogues. OLs were immunostained with an antigen on the surface of oligodendrocyte progenitors, O4, a marker of mature oligodendrocytes, myelin oligodendrocyte glycoprotein, MOG and co-stained with nuclear stain DAPI.
FIG. 12B and FIG. 12C show quantification of the effects of treatment on the number of MOG+ OLs and the number of total cells (DAPI), respectively. […] There were 3 wells/treatment group. n=3 independent experiments were performed. One-Way ANOVA with Dunnett's multiple comparisons test.
The effect on cell differentiation and survival of estrogen receptor § (ERP) ligand IndCl and analogs were investigated. Some estrogen receptor § (ERP) ligands increase primary mouse oligodendrocyte differentiation (FIGS. 12A-12C).

[1] = system: primary oligodendrocyte and oligodendrocyte precursor cells (OL/OPCs); test: Primary OPC culture differentiation (MBP immunostaining, DAPI); type: cell-based, mouse
Experimental: Primary OPC Cultures: Primary OPCs, isolated from postnatal day P1 C57BL/6 male and female mouse cortices as described previously, were treated with 10 nM ligands in differentiating medium for 3 days (Tiwari-Woodruff et al., 2001; Tiwari-Woodruff et al., 2006). Primary OPC were cultured into 8-well chamber slides (three wells per condition, 2.5×10^5 cells/well) for three days to attach and […] in differentiating media (consisting of DMEM-F12 with triiodothyronine- and thyroxine-containing Sato as well as penicillin, streptomycin, insulin, N-acetyl-L-cysteine, forskolin, ciliary neurotrophic factor, neurotrophin-3, and platelet-derived growth factor receptor α (Tiwari-Woodruff et al., 2001)). A positive control (IndCl), a negative control (Vehicle consisting of the media+EtOH mixture used to dissolve IndCl), and a normal control (differentiating media alone) were used for comparison. At the end of the treatment period, cells were fixed, stained by immunocytochemistry (primary antibody polyclonal chicken myelin basic protein (MBP, Millipore AB9348), shown in green and co-stained with nuclear stain—DAPI shown in blue), and imaged with an Olympus BX61 confocal microscope (Olympus America Inc., Center Valley, Pa.) at 10× magnification (3 images per well). Cells were counted using the ImageJ multipoint tool, and counts were then divided by the image area (mm^2). Average cell density for each condition was then divided by the normal condition cell density. Analysis of OL differentiation consisted of counting the number of MBP+ cells and process extensions that were longer than the respective cell-body diameter and tracking the number of highly branched MBP+ cells (with three or more processes) (Monnerie et al., 2017). Statistics were performed using GraphPad Prism 6 Software (La Jolla, Calif.). One-way ANOVA with Tukey's posthoc test for multiple comparisons was used to generate p-values, and data are presented as mean SEM (with α≤0.05).
Primary OPC cultures were used as a convenient cell-based assay to characterize the proliferation and/or differentiation effects of the new IndCl analogues and to select those most suitable for more extensive studies to be done in comparison with the parental ligand, IndCl. 48 hours after plating OPCs, one of seven IndCl analogues (FIG. 1A) was added to differentiating media at a concentration of 10 nM (De Angelis et al., 2005; Saijo et al., 2011). OPCs were allowed to differentiate for 3 days in the presence of IndCl or analogues, at which point they were fixed, immunostained for OPC/OL markers, and quantified. […] The total number of cells in culture was not altered by any treatment (FIGS. 1B and 1D).

Sequence of ERβ (Q92731 whole entry, species assumed): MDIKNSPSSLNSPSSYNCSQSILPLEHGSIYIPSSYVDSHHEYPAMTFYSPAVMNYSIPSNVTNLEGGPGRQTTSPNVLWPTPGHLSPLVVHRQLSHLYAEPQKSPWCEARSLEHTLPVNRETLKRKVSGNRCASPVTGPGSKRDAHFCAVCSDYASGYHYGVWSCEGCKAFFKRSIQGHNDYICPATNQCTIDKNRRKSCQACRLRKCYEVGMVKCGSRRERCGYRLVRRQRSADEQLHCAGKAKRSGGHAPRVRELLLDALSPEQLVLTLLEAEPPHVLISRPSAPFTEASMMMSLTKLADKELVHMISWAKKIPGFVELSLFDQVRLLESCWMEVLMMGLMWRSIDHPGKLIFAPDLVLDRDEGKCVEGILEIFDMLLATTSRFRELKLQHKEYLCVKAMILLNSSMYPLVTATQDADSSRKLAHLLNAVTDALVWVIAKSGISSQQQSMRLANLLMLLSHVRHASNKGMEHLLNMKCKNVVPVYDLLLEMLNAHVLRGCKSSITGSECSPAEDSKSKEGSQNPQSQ

RBA ERα (ERα) [%] | β/α Ratio (ERβ) | RBA ERβ (ERβ) [%] | Structure (SMILES) | number of MOG+ OLs (primary OPCs/OLs) | %MBP+/DAPI ([1]; level of production of myelin basic protein in primary OPC/OL cultures) | number of total cells (DAPI) (primary OPCs/OLs; FIG. 12C) | MBP+/DAPI ratio (OPC differentiation) ([1]; FIG. 10B)
0.11 | 3.4 | 0.37 | Cc1cc(O)ccc1-n1nc2ccc(O)cc2c1F [IndF-o-Me, 3-fluoro-2-(4-hydroxy-2-methylphenyl)-2H-indazol-5-ol] | significant increase | * * * * * | – | –
1.22 | 9.8 | 11.99 | Cc1cc(O)ccc1-n1nc2ccc(O)cc2c1Br [IndBr-o-Me, 3-bromo-2-(4-hydroxy-2-methylphenyl)-2H-indazol-5-ol] | significant increase | – | – | –
0.37 | 3.3 | 1.22 | Oc1ccc(-n2nc3ccc(O)cc3c2F)c(Br)c1 [IndF-o-Br, 2-(2-bromo-4-hydroxyphenyl)-3-fluoro-2H-indazol-5-ol] | significant increase | – | significant increase | –
0.062 | 48.2 | 2.99 | Oc1ccc(-n2nc3ccc(O)cc3c2Cl)c(O)c1 [IndCl-o-OH, 4-(3-chloro-5-hydroxy-2H-indazol-2-yl)benzene-1,3-diol] | – | – | – | greatest increase
